Here are results for 6 molecules from patent publication US20030157516A1, “G protein coupled receptor” (priority 2000, published 2003).

Where “and” joins values, the source holds several entries; their conditions need not be identical. Equal values may be shown once.

Test [1] deals with wild type CHO cells. Put plainly: [3H]adenine competition binding on wild type CHO membranes. The following applies: 15 nM [3H]adenine. The method, then: The membranes were prepared as total particulate fractions. […] The culturing medium was removed and the cells were washed twice with ice cold phosphate buffered saline (PBS without Ca^2+ and Mg^2+), scraped from the plates in 50 mM Tris-HCl buffer, pH 7.4, and collected by centrifugation (10 minutes at 16,000 RPM at 4° C.). The cell pellet was re-suspended in hypotonic 5 mM Tris-HCl buffer, pH 7.4, and homogenized with an Ultra Turrax homogenizer (Janker Kunkel, Germany). The homogenate was centrifuged at 18,000 RPM for 20 minutes at 4° C. The final pellet was re-suspended in 50 mM Tris-HCl buffer, pH 7.4 and stored in aliquots at −70° C. A protein determination was performed using the Bradford protein assay (Biorad, Germany) using bovine serum albumin (BSA) as standard.
(§1) Membranes were thawed on ice and diluted in 50 mM HEPES buffer, pH 7.4 supplemented with 10 mM MgCl2 and 1 mM EGTA. […] Both assays were carried out in a final volume of 500 μl, using 18 μg of membrane protein for the transfected CHO cells and 30 μg of membrane protein for the wild type CHO cells for the saturation binding. For competition binding experiments, 15 and 50 μg of membrane protein was used for the transfected and wild type cells, respectively. The reaction was terminated by rapid filtration through Whatman GF/B filters using a Brandel multi-channel cell harvester (96 wells). The filters were washed three times with 3 ml ice cold 50 mM HEPES buffer, pH 7.4, transferred to liquid scintillation vials and 3 ml of scintillation fluid (Ultima Gold MV, Packard, Netherlands) was added. Samples were counted in a β-scintillation counter after at least 6 hours to permit the glass fiber filters to become uniformly translucent.

Test [2] concerns the target T1, adenine binding rat receptor (Rattus norvegicus, UniProt Q7TN49).
T1 construct: expressed in transfected cells; host or cells: CHO cells, transient, lipofectamine PLUS
T1 sequence (Q7TN49 1-304): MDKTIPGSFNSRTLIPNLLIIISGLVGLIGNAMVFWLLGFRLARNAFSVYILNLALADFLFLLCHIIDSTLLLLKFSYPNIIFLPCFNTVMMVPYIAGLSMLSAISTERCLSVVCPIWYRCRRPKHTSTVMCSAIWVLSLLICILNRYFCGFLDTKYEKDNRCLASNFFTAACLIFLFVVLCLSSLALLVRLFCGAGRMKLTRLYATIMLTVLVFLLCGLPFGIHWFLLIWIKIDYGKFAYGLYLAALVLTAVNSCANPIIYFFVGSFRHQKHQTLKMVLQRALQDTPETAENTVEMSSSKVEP
The test can be described thus: [3H]adenine competition binding on CHO membranes transiently transfected. Conditions: transfected cells, 15 nM [3H]adenine. The protocol:
The membranes were prepared as total particulate fractions. The cell lines were cultured to […] on 145 mm petri dishes and treated with 5 mM sodium butyrate, 24 hours before collection. The culturing medium was removed and the cells were washed twice with ice cold phosphate buffered saline (PBS without Ca^2+ and Mg^2+), scraped from the plates in 50 mM Tris-HCl buffer, pH 7.4, and collected by centrifugation (10 minutes at 16,000 RPM at 4° C.). The cell pellet was re-suspended in hypotonic 5 mM Tris-HCl buffer, pH 7.4, and homogenized with an Ultra Turrax homogenizer (Janker Kunkel, Germany). The homogenate was centrifuged at 18,000 RPM for 20 minutes at 4° C. The final pellet was re-suspended in 50 mM Tris-HCl buffer, pH 7.4 and stored in aliquots at −70° C. A protein determination was performed using the Bradford protein assay (Biorad, Germany) using bovine serum albumin (BSA) as standard.
as §1, with “A) Methods—[3H]Adenine binding experiments were performed to characterize wild type cell lines before transfection as well as transiently and permanently transfected cell lines. Membranes” for “Membranes”

The next test addresses T2, rat adenine binding GPCR (Rattus norvegicus, UniProt Q7TN49).
T2 sequence (Q7TN49 1-304): T1 sequence (Q7TN49 1-304)
Put plainly: FLIPR Ca2+ transient assay, agonism, HEK293/Gq chimera cells transiently transfected with rat adenine binding GPCR/pcDNA3. It is filed as cell-based. Set-up: The full length reading frame was inserted into the mammalian expression vector pcDNA3; expressed in transfected cells; host or cells: HEK293 cells stably transfected with pLEC/Gqi or pLEC/Gqo. Conditions: for agonistic effects on Ca2+ transients: concentrations ranging from 30 μM to 30 pM; for calcium transients elicited: HEK293/Gaqo cells, 3.3 μM. From the text:
This assay is based around an instrument called a FLuorescence Imaging Plate Reader ((FLIPR®), Molecular Devices Corporation). In its most common configuration, it excites and measures fluorescence emitted by fluorescein-based dyes. It uses an argon-ion laser to produce high power excitation at 488 nm of a fluorophore, a system of optics to rapidly scan the over the bottom of a 96-/384-well plate and a sensitive, cooled CCD camera to capture the emitted fluorescence. It also contains a 96-/384-well pipetting head allowing the instrument to deliver solutions of test agents into the wells of a 96-/384-well plate. The FLIPR assay is designed to measure fluorescence signals from populations of cells before, during and after addition of compounds, in real time, from all 96-/384-wells simultaneously. […] As described below, calcium transients in cells transfected with adenine binding GPCR were measured using the FLIPR assay in order to measure activation of the receptors by various substrates in order to determine the natural ligand of the receptor.
The full length reading frame was inserted into the mammalian expression vector pcDNA3 (Invitrogen, Carlsbad, Calif., U.S.A.) and the resulting expression construct was transiently transfected with the FuGENE 6 reagent (Roche Molecular Biochemicals, Mannheim, Germany) into HEK293 cells stably transfected (E. Bender, unpublished) with pLEC/Gqi or pLEC/Gqo (Molecular Devices, Sunnyvale, Calif., U.S.A.). The cells were loaded with Fluo-4 (Molecular Probes, Eugene, Oreg., U.S.A.) according to the recommendations of the supplier. […]
Using the FLIPR assay as above, calcium transients were measured in both sets of cells with the transients attributable to the novel GPCR measured as the difference between the two transients. Results are illustrated in FIG. 4. […]

The next test concerns the target T3, adenine binding GPCR (Rattus norvegicus, UniProt Q7TN49).
T3 construct: The full length reading frame was inserted into the mammalian expression vector pcDNA3; expressed in transfected cells; host or cells: HEK293 cells stably transfected with pLEC/Gqi or pLEC/Gqo
T3 sequence (Q7TN49 1-304): T1 sequence (Q7TN49 1-304)
Put plainly: FLIPR Ca2+ transient assay, antagonism of 30 nM adenine challenge. It is filed as cell-based. Conditions: 15 minutes incubation with compound (30 μM to 30 pM), then challenge with 30 nM adenine. The source says:
The full length reading frame was inserted into the mammalian expression vector pcDNA3 (Invitrogen, Carlsbad, Calif., U.S.A.) and the resulting expression construct was transiently transfected with the FuGENE 6 reagent (Roche Molecular Biochemicals, Mannheim, Germany) into HEK293 cells stably transfected (E. Bender, unpublished) with pLEC/Gqi or pLEC/Gqo (Molecular Devices, Sunnyvale, Calif., U.S.A.). The cells were loaded with Fluo-4 (Molecular Probes, Eugene, Oreg., U.S.A.) according to the recommendations of the supplier.
After a 15 minutes incubation at room temperature, the same cells were challenged with 30 nM adenine, to detect antagonistic properties of molecules added in the first round of superfusion.

Test [3] has as its system wild type CHO cells. The test can be described thus: cAMP measurements on wild type CHO cells. Conditions: wild type. It is filed as cell-based. The protocol: For permanently transfected CHO cells, cAMP measurements were performed using the indirect RIA kit from NEN (Belgium).
a) Methods: Two days before the experiment the cells were seeded out in a 96 well plate at a density required for approximately 90% confluence at the day of the experiment. After removal of the growth medium, the cells were washed twice with a controlled salt solution (CSS) containing 25 mM Tris-HCl, pH 7.4, 120 mM NaCl, 5.4 mM KCl, 0.8 mM MgCl2, 1.8 mM CaCl2, 15 mM glucose and 15 mg/l phenol red, with an addition of a phosphodiesterase inhibitor IBMX (3-isobutyl-1-methylxanthine) in a concentration of 1 mM and […]. Basal cAMP levels were determined in CSS containing these additives and maximally stimulated cAMP levels were determined in the presence of 50 μM forskolin. For testing agonistic activity, the compounds were incubated with the cells for 20 minutes at 37° C. The reaction was stopped by addition of ice cold HClO4 (1N) and stored at −20° C. After thawing the mixtures were neutralized with an equivalent amount of phosphate buffered KOH, left at 4° C. during 30 minutes to allow the salts to precipitate and centrifuged at 2,000 RPM for 5 minutes at 4° C.
For the quantitative determination of the cAMP levels, a 96-well Flashplate radioimmunoassay kit from NEN was used, according to the protocol of the supplier. The sigmoid concentration response curves (duplicate points) were analyzed using the GraphPad Prism program.

Usually pIC50 stands for −log10 of the IC50, conventionally taken in molar units. Low values mean a high IC50, high ones a low IC50. For orientation: Ki means the equilibrium dissociation constant of an inhibitor or competing ligand from its target. Higher therefore signals a looser hold on the target. Turning to `Nc1ncnc2c1ncn2[C@@H]1O[C@H](COP(=O)(O)OP(=O)(O)OP(=O)(O)O)[C@@H](O)[C@H]1O` [ATP], the pIC50 in the test on wild type CHO cells [1] (mean of n experiments) is less than 4; with wild type CHO cells [1] (single experiments), less than 4; in test [2] (mean of n experiments) it was 4.07; in test [2] (single experiments), 4.02 and 4.18. The Ki in test [2] (mean of n experiments) was 52.8 µM; in test [2] (single experiments), 58.5 µM (2×) and 40.7 µM. Moreover, on rat adenine binding GPCR, the “agonistic effects on Ca2+ transients” value is listed as “No further agonistic effects”. Also, the antagonistic effect result on adenine binding GPCR is reported as “did not elicit antagonistic effects”.
The term IC50 denotes the concentration at which inhibition is half-maximal. A high value points to a need for much substance. Turning to `Nc1ncnc2c1ncn2[C@@H]1O[C@H](CO)[C@@H](O)[C@H]1O` [Adenosine, adenosine], the pIC50 with wild type CHO cells [1] (mean of n experiments) and with wild type CHO cells [1] (single experiments) was less than 4 each time. The IC50 in test [2] (mean of n experiments) is approximately 100 µM; in test [2] (single experiments) it was > 100 µM and 72.4 µM. The same molecule had a Ki in test [2] (single experiments) of 44.6 µM. Further, the “agonism of nucleoside and nucleotide derivatives of adenine” value on rat adenine binding GPCR (at high concentrations (>3.3 μM)) is “weak partial agonism”. Moreover, at adenine binding GPCR, the antagonistic effect result is recorded as “did not elicit antagonistic effects”.
In the case of `Nc1nc2nc[nH]c2c(=O)[nH]1` [Guanine, guanine], the pIC50 in the test on wild type CHO cells [1] (mean of n experiments) and with wild type CHO cells [1] (single experiments) was less than 4 in each case. In addition, the IC50 in test [2] (mean of n experiments) and in test [2] (single experiments) was more than 100 µM in each case. Moreover, the calcium transients elicited result on rat adenine binding GPCR was “could not be elicited”. The “agonistic effects on Ca2+ transients” value at rat adenine binding GPCR was “No further agonistic effects”. Further, the antagonistic effect result on adenine binding GPCR is recorded as “weak antagonistic effect”.
On to `O=c1[nH]cnc2nc[nH]c12` [Hypoxanthine, hypoxanthine], for which the negative-log IC50 (pIC50) in the test with wild type CHO cells [1] (mean of n experiments) and in the test on wild type CHO cells [1] (single experiments) was less than 4 each time. In addition, the IC50 in test [2] (mean of n experiments) and in test [2] (single experiments) was more than 100 µM each time. Also, at rat adenine binding GPCR, the calcium transients elicited result is reported as “could not be elicited”. Besides, at rat adenine binding GPCR, the “agonistic effects on Ca2+ transients” value is listed as “No further agonistic effects”. Also, the antagonistic effect entry at adenine binding GPCR is listed as “did not elicit antagonistic effects”.
Take `O=c1ccn([C@@H]2O[C@H](CO)[C@@H](O)[C@H]2O)c(=O)[nH]1` [Uridine, uridine]: the pIC50 in the test on wild type CHO cells [1] (mean of n experiments) and with wild type CHO cells [1] (single experiments) was less than 4 throughout. Moreover, the IC50 in test [2] (mean of n experiments) and in test [2] (single experiments) was more than 100 µM throughout. Moreover, at rat adenine binding GPCR, the calcium transients elicited result was “could not be elicited”. In addition, the “agonistic effects on Ca2+ transients” value at rat adenine binding GPCR was “No further agonistic effects”. The antagonistic effect result at adenine binding GPCR is “did not elicit antagonistic effects”.
For the molecule `C=C[C@@]1(C)CC(=O)[C@]2(O)[C@@]3(C)[C@@H](O)CCC(C)(C)[C@@H]3[C@H](O)[C@H](OC(C)=O)[C@@]2(C)O1` [forskolin], the “cAMP level with Forskolin 50 μM” value was 25 pmol/well in the test on wild type CHO cells [3] (0.5% hiFCS, induction); 26 pmol/well in the test with wild type CHO cells [3] (0.5% hiFCS, no induction); 63 pmol/well in the test on wild type CHO cells [3] (10% hiFCS, induction); 107 pmol/well with wild type CHO cells [3] (10% hiFCS, no induction).
